Experimental data: ChEMBL document CHEMBL3885881, “DrugMatrix”

Species on record: Rattus norvegicus
Test: DrugMatrix - Regimen: Daily Repeat
Type: toxicity, organism-based, Sprague-Dawley
Parameters: regimen Daily Repeat, gender Male, age 6-8 weeks
Details: in vivo, po, route oral GAVAGE, […]; for ABSOLUTE BASOPHIL / ABSOLUTE EOSINOPHIL / ABSOLUTE LYMPHOCYTE / ABSOLUTE SEGMENTED NEUTROPHIL / BASOPHIL / EOSINOPHIL / ERYTHROCYTE COUNT / HEMATOCRIT / HEMOGLOBIN / LEUKOCYTE COUNT / LYMPHOCYTE / MEAN CORPUSCULAR HEMOGLOBIN / MEAN CORPUSCULAR HEMOGLOBIN CONCENTRATION / MEAN CORPUSCULAR VOLUME / MONOCYTE / NEUTROPHIL / NUCLEATED RED BLOOD CELLS / PLATELET COUNT: tissue Blood; for ALANINE AMINOTRANSFERASE / ALBUMIN / ALKALINE PHOSPHATASE / ASPARTATE AMINOTRANSFERASE / BLOOD UREA NITROGEN / CARBON DIOXIDE / CHLORIDE / CHOLESTEROL / CREATINE PHOSPHOKINASE / CREATININE / GLUCOSE / LACTATE DEHYDROGENASE / LIPASE / PHOSPHORUS / POTASSIUM / SODIUM / TOTAL BILIRUBIN / TOTAL PROTEIN / URIC ACID: tissue Plasma
[1] = 0 mg/kg, 72 h, dose level Control, time 3 day
[2] = 0 mg/kg, 120 h, dose level Control, time 5 day
[3] = 15 mg/kg, 72 h, dose level Low, time 3 day

## CCC(C)(C)C(=O)O[C@H]1C[C@@H](C)C=C2C=C[C@H](C)[C@H](CC[C@@H]3C[C@@H](O)CC(=O)O3)[C@H]21 [SIMVASTATIN]
[1]
  ABSOLUTE BASOPHIL: 0 CELLS/uL
  ABSOLUTE EOSINOPHIL: 14 CELLS/uL
  ABSOLUTE LYMPHOCYTE: 11144.67 CELLS/uL
  ABSOLUTE SEGMENTED NEUTROPHIL: 535.5 CELLS/uL
  BASOPHIL: 0%
  EOSINOPHIL: 0.17%
  ERYTHROCYTE COUNT: 5.08 x10E6/uL
  HEMATOCRIT: 32.32%
  HEMOGLOBIN: 12.87 G/DL
  LEUKOCYTE COUNT: 11.72 x10E3/uL
  LYMPHOCYTE: 94.67%
  MEAN CORPUSCULAR HEMOGLOBIN: 25.37 pg
  MEAN CORPUSCULAR HEMOGLOBIN CONCENTRATION: 39.85 G/DL
  MEAN CORPUSCULAR VOLUME: 63.58 fL
  MONOCYTE: 0.17%
  NEUTROPHIL: 5%
  NUCLEATED RED BLOOD CELLS: 0 /100WBC
  PLATELET COUNT: 1084 x10E3/uL
  ALANINE AMINOTRANSFERASE: 67.5 u/L
  ALBUMIN: 4.02 G/DL
  ALKALINE PHOSPHATASE: 374.17 u/L
  ASPARTATE AMINOTRANSFERASE: 83.5 u/L
  BLOOD UREA NITROGEN: 14.5 mg/dL
  CARBON DIOXIDE: 30 mmol/L
  CHLORIDE: 100.5 MEQ/L
  CHOLESTEROL: 71.33 mg/dL
  CREATINE PHOSPHOKINASE: 268.33 u/L
  CREATININE: 0.16 mg/dL
  GLUCOSE: 170.5 mg/dL
  LACTATE DEHYDROGENASE: 81.17 u/L
  LIPASE: 16.67 u/L
  PHOSPHORUS: 10.07 mg/dL
  POTASSIUM: 5.03 MEQ/L
  SODIUM: 142.92 MEQ/L
  TOTAL BILIRUBIN: 0.17 mg/dL
  TOTAL PROTEIN: 5.63 G/DL
  URIC ACID: 0.5 mg/dL
[2]
  ABSOLUTE BASOPHIL: 0 CELLS/uL
  ABSOLUTE EOSINOPHIL: 37.5 CELLS/uL
  ABSOLUTE LYMPHOCYTE: 8049.5 CELLS/uL
  ABSOLUTE SEGMENTED NEUTROPHIL: 646.83 CELLS/uL
  BASOPHIL: 0%
  EOSINOPHIL: 0.5%
  ERYTHROCYTE COUNT: 5.36 x10E6/uL
  HEMATOCRIT: 33.9%
  HEMOGLOBIN: 13.02 G/DL
  LEUKOCYTE COUNT: 8.82 x10E3/uL
  LYMPHOCYTE: 90.17%
  MEAN CORPUSCULAR HEMOGLOBIN: 24.32 pg
  MEAN CORPUSCULAR HEMOGLOBIN CONCENTRATION: 38.42 G/DL
  MEAN CORPUSCULAR VOLUME: 63.32 fL
  MONOCYTE: 1.17%
  NEUTROPHIL: 8.17%
  NUCLEATED RED BLOOD CELLS: 0.17 /100WBC
  PLATELET COUNT: 1231.5 x10E3/uL
  ALANINE AMINOTRANSFERASE: 62 u/L
  ALBUMIN: 3.97 G/DL
  ALKALINE PHOSPHATASE: 303.67 u/L
  ASPARTATE AMINOTRANSFERASE: 84.5 u/L
  BLOOD UREA NITROGEN: 14.83 mg/dL
  CARBON DIOXIDE: 31.83 mmol/L
  CHLORIDE: 97 MEQ/L
  CHOLESTEROL: 68.83 mg/dL
  CREATINE PHOSPHOKINASE: 411.33 u/L
  CREATININE: 0.16 mg/dL
  GLUCOSE: 170.17 mg/dL
  LACTATE DEHYDROGENASE: 88.5 u/L
  LIPASE: 9.5 u/L
  PHOSPHORUS: 9.98 mg/dL
  POTASSIUM: 5.72 MEQ/L
  SODIUM: 141.62 MEQ/L
  TOTAL BILIRUBIN: 0.1 mg/dL
  TOTAL PROTEIN: 5.67 G/DL
  URIC ACID: 0.52 mg/dL
[3]
  ABSOLUTE BASOPHIL: 0 CELLS/uL
  ABSOLUTE EOSINOPHIL: 0 CELLS/uL
  ABSOLUTE LYMPHOCYTE: 9235.67 CELLS/uL
  ABSOLUTE SEGMENTED NEUTROPHIL: 962.33 CELLS/uL
  BASOPHIL: 0%
  EOSINOPHIL: 0%
  ERYTHROCYTE COUNT: 5.23 x10E6/uL
  HEMATOCRIT: 32.6%
  HEMOGLOBIN: 12.9 G/DL
  LEUKOCYTE COUNT: 10.33 x10E3/uL
  LYMPHOCYTE: 89.33%
  MEAN CORPUSCULAR HEMOGLOBIN: 24.7 pg
  MEAN CORPUSCULAR HEMOGLOBIN CONCENTRATION: 39.57 G/DL
  MEAN CORPUSCULAR VOLUME: 62.4 fL
  MONOCYTE: 1.33%
  NEUTROPHIL: 9.33%
  NUCLEATED RED BLOOD CELLS: 0 /100WBC
  PLATELET COUNT: 1186.33 x10E3/uL
  ALANINE AMINOTRANSFERASE: 75 u/L
  ALBUMIN: 4.07 G/DL
  ALKALINE PHOSPHATASE: 310.67 u/L
  ASPARTATE AMINOTRANSFERASE: 85.33 u/L
  BLOOD UREA NITROGEN: 14 mg/dL
  CARBON DIOXIDE: 29.33 mmol/L
  CHLORIDE: 103 MEQ/L
  CHOLESTEROL: 68.67 mg/dL
  CREATINE PHOSPHOKINASE: 229.33 u/L
  CREATININE: 0.12 mg/dL
  GLUCOSE: 170.33 mg/dL
  LACTATE DEHYDROGENASE: 76.33 u/L
  LIPASE: 10 u/L
  PHOSPHORUS: 9.87 mg/dL
  POTASSIUM: 5.16 MEQ/L
  SODIUM: 146.93 MEQ/L
  TOTAL BILIRUBIN: 0.13 mg/dL
  TOTAL PROTEIN: 5.67 G/DL
  URIC ACID: 0.77 mg/dL
